Assay results from ChEMBL document CHEMBL5523759, “Discovery of Novel HDAC3 Inhibitors with PD-L1 Downregulating/Degrading and Antitumor Immune Effects” (J Med Chem, 2024).
pIC50: −log10 of the molar value. The source made the active and inactive calls. The rule behind the calls is not given here.

Tests used:
Histone deacetylase 3 = Histone deacetylase 3 (Homo sapiens, UniProt O15379); assay: Inhibition of human recombinant HDAC3 using Ac-Leu-Gly-Lys (Ac)-AMC as substrate preincubated with compound for 10 mins followed by substrate addition and measured after 45 mins by TECAN microtiter plate reader analysis
[1] = biological target: T1, Histone deacetylase 3 (Mus musculus) (UniProt O88895); assay: Inhibition of HDAC3 in mouse B16-F10 cells assessed as upregulation of acetylated H3 level at 1 to 2 uM measured for 24 hrs by Western blot analysis; assay type: cell-based; conditions: dose 1-2 µM
T1 sequence (whole entry): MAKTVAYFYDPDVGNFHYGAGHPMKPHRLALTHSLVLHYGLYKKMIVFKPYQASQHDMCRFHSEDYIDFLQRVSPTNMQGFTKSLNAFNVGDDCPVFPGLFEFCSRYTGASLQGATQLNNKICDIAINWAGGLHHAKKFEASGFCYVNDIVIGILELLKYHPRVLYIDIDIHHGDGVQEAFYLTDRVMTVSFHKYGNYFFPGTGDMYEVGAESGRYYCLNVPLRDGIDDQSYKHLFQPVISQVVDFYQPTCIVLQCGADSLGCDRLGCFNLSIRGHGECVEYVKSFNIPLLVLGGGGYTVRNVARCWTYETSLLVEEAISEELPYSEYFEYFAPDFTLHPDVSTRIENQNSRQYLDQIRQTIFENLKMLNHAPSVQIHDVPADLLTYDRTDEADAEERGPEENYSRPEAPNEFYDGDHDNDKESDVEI

[2] = biological target: T1, Histone deacetylase 3 (Mus musculus); assay: Inhibition of HDAC3 in mouse B16-F10 cells assessed as decrease in PD-L1 level measured for 24 hrs by Western blot analysis; assay type: cell-based; conditions: dose 1-2 µM
[3] = biological target: Programmed cell death 1 ligand 1 (Mus musculus) (UniProt Q9EP73); assay: Induction of PD-L1 degradation in mouse B16-F10 cells at 10 uM measured for 24 hrs by Western blot analysis relative to control; assay type: cell-based
[4] = biological target: Programmed cell death 1 ligand 1 (Mus musculus) (UniProt Q9EP73); assay: Induction of PD-L1 degradation in mouse B16-F10 cells assessed as upregulation of CTSB level at 1 to 4 uM measured for 4 hrs in presence of CA-074 by Western blot analysis; assay type: cell-based; conditions: dose 1-4 µM
[5] = AUC (0 to t) in Sprague-Dawley rat at 2 mg/kg, iv measured up to 12 hrs by LC-MS/MS analysis; assay type: ADME, organism-based; conditions: in vivo
[6] = AUC (0 to infinity) in Sprague-Dawley rat at 20 mg/kg, po measured up to 12 hrs by LC-MS/MS analysis; assay type: ADME, organism-based; conditions: in vivo
[7] = MRT (0 to infinity) in Sprague-Dawley rat at 2 mg/kg, iv measured up to 12 hrs by LC-MS/MS analysis; assay type: ADME, organism-based; conditions: in vivo
[8] = Half life in Sprague-Dawley rat at 2 mg/kg, iv measured up to 12 hrs by LC-MS/MS analysis; assay type: ADME, organism-based; conditions: in vivo
[9] = Tmax in Sprague-Dawley rat at 20 mg/kg, po measured up to 12 hrs by LC-MS/MS analysis; assay type: ADME, organism-based; conditions: in vivo
[10] = Clearance in Sprague-Dawley rat at 20 mg/kg, po measured up to 12 hrs by LC-MS/MS analysis; assay type: ADME, organism-based; conditions: in vivo
[11] = Apparent volume of distribution in Sprague-Dawley rat at 2 mg/kg, iv measured up to 12 hrs by LC-MS/MS analysis; assay type: ADME, organism-based; conditions: in vivo, read-out: Vz
[12] = Apparent volume of distribution in Sprague-Dawley rat at 20 mg/kg, po measured up to 12 hrs by LC-MS/MS analysis; assay type: ADME, organism-based; conditions: in vivo
[13] = Cmax in Sprague-Dawley rat at 2 mg/kg, iv measured up to 12 hrs by LC-MS/MS analysis; assay type: ADME, organism-based; conditions: in vivo
[14] = Cmax in Sprague-Dawley rat at 20 mg/kg, po measured up to 12 hrs by LC-MS/MS analysis; assay type: ADME, organism-based; conditions: in vivo
[15] = Oral bioavailability in Sprague-Dawley rat at 20 mg/kg measured up to 12 hrs by LC-MS/MS analysis; assay type: ADME, organism-based; conditions: in vivo
[16] = Metabolic stability in mouse liver microsome assessed as parent compound remaining measured at 45 mins; assay type: ADME; conditions: liver microsomes, read-out: Stability
[17] = Metabolic stability in rat liver microsome assessed as parent compound remaining measured at 5 mins; assay type: ADME; conditions: liver microsomes, read-out: Stability
[18] = Metabolic stability in rat liver microsome assessed as half life; assay type: ADME; conditions: liver microsomes
[19] = Metabolic stability in mouse liver microsome assessed as intrinsic clearance; assay type: ADME; conditions: liver microsomes, read-out: CLH
[20] = Metabolic stability in rat liver microsome assessed as intrinsic clearance; assay type: ADME; conditions: liver microsomes, read-out: CLH
[21] = Toxicity in C57BL/6 mouse implanted with mouse B16-F10 cells assessed as body weight loss at 25 mg/kg, po administered for 9 days; assay type: organism-based; conditions: in vivo, 216 h, time 9 day
[22] = Toxicity in C57BL/6 mouse implanted with mouse B16-F10 cells assessed as spleen damage at 25 mg/kg, po administered for 9 days by H and E staining based analysis; assay type: organism-based; conditions: in vivo, 216 h, time 9 day
[23] = Toxicity in C57BL/6 mouse implanted with mouse B16-F10 cells assessed as kidney damage at 25 mg/kg, po administered for 9 days by H and E staining based analysis; assay type: organism-based; conditions: in vivo, 216 h, time 9 day
[24] = Acute toxicity in C57BL/6J mouse assessed as survival rate at 1000 mg/kg, po administered for 14 days; assay type: organism-based; conditions: in vivo, time 14 day
B16-F10 [25] = assay: Antitumor activity against mouse B16-F10 cells implanted in C57BL/6 mouse model assessed as upregulation of Ac-H3 expression at 25 mg/kg, po administered for 9 days by Western blot analysis; assay type: functional, organism-based; conditions: time 9.0 day
B16-F10 [26] = assay: Antitumor activity against mouse B16-F10 cells implanted in C57BL/6 mouse model assessed as […] in Ac-H3 expression in tumor at 25 mg/kg, po administered for 9 days by immunofluorescence analysis; assay type: functional, organism-based; conditions: time 9.0 day
B16-F10 [27] = assay: Antitumor immunity against mouse B16-F10 cells implanted in C57BL/6 mouse model assessed as increase in CD3+ CD4+ T cells at 25 mg/kg, po administered for 9 days (reference value: 1.50%); assay type: functional; conditions: time 9 day

Programmed cell death 1 ligand 1 (Mus musculus), sequence (Q9EP73 whole entry): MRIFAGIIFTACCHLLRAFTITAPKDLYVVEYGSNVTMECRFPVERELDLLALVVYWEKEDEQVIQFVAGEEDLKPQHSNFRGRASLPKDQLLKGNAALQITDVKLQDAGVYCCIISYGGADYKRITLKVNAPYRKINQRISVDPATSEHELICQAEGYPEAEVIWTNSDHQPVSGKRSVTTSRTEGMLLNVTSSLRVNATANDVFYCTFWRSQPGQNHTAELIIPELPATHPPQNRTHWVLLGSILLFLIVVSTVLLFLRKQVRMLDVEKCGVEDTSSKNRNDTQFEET
Histone deacetylase 3, sequence (O15379 whole entry): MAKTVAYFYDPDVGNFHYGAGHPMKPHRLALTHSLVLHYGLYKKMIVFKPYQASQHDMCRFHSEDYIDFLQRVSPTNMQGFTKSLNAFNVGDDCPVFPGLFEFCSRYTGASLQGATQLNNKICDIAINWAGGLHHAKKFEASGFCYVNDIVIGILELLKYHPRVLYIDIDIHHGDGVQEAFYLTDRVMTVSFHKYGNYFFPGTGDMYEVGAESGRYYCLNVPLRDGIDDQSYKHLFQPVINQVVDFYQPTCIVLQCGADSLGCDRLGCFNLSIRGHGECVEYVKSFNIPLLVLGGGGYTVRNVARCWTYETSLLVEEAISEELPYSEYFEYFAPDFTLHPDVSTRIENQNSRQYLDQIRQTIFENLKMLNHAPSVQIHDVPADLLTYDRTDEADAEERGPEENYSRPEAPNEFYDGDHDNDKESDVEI

For `Nc1ccccc1NC(=O)c1ccc(-c2ncc(CNc3ccccc3)s2)cc1`, the pIC50 (Histone deacetylase 3) was 7.18.
For `CCCNNC(=O)c1ccc(CNC(=O)c2ncc(CNc3ccccc3)s2)cc1`, the inhibition [1] was “Active”, the inhibition [2] was “Dose-Dependent Effect” and the Emax [3] was 80%. The Activity [4] was “Active”, the AUC(0-t) at 12 h [5] was 522 ng·h/mL and the AUC(0-inf) [6] was 3030 ng·h/mL. The MRT inf [7] was 33 min, the half-life [8] was 24 min and the Tmax [9] was 30 min. The CL/F [10] was 121 mL/min/kg, the Vd [11] was 2.21 L/kg and the Vz [12] was 34.45 L/kg. The Cmax [13] was 725 ng/mL, the Cmax [14] was 1040 ng/mL and the bioavailability [15] was 57%. The remaining at 0.75 h [16] was 4.03%, the remaining at 5 min [17] was 79.9% and the half-life [18] was 23.7 min. For the same compound, the CLint scaled [19] was 563 mL/min/kg, the CLint scaled [20] was 107 mL/min/kg and the Activity [21] was “Non-Toxic”. The Activity [22] was “Non-Toxic”, the Activity [23] was “Non-Toxic” and the survival at 336 h [24] was 80%. For the same compound, the Activity (B16-F10 [25]) was “Active”, the Activity (B16-F10 [26]) was “Active” and the Activity (B16-F10 [27]) was 4.16%.
